# Legend:
# [1] = system: chickweed; assay: Test B preemergence/postemergence greenhouse plant response rating 0 to 10; assay type: in vivo, Stellaria media; settings: 0 to 10 scale
# How it was run: (§1)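 Planted seeds are treated preemergence with compound dissolved in a non-phytotoxic solvent, while postemergence applications go onto plants of two to eighteen cm. Plants stay in the greenhouse twelve to sixteen days and are then rated visually relative to controls.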
# [2] = system: duck salad; assay: Test C flood test plant response rating 0 to 100; assay type: in vivo, Heteranthera limosa
# How it was run: (§2)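 Compounds in non-phytotoxic solvent applied preemergence to sandy loam one day after planting, postemergence at the 1–4 leaf stage, or to ~2.5 cm floodwater over silt loam.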
# [3] = system: corn; assay: Test C preemergence/postemergence greenhouse plant response rating 0 to 100; assay type: in vivo, Zea mays; settings: POSTEMERGENCE
# How it was run: as §2
# [4] = system: barnyardgrass; assay: Test C flood test plant response rating 0 to 100; assay type: in vivo, Echinochloa crus-galli
# How it was run: as §2
# [5] = system: sugar beet; assay: Test B preemergence/postemergence greenhouse plant response rating 0 to 10; assay type: in vivo, Beta vulgaris; settings: 0 to 10 scale
# How it was run: as §1
# [6] = system: wild oat; assay: Test C preemergence/postemergence greenhouse plant response rating 0 to 100; assay type: in vivo, Avena fatua; settings: POSTEMERGENCE
# How it was run: as §2
# [7] = system: downy brome; assay: as above; assay type: in vivo, Bromus tectorum; settings: POSTEMERGENCE
# How it was run: as §2
# [8] = system: corn; assay: Test B preemergence/postemergence greenhouse plant response rating 0 to 10; assay type: in vivo, Zea mays; settings: 0 to 10 scale
# How it was run: as §1
# [9] = system: sorghum; assay: Test C preemergence/postemergence greenhouse plant response rating 0 to 100; assay type: in vivo, Sorghum bicolor; settings: POSTEMERGENCE
# How it was run: as §2
# [10] = system: giant foxtail; assay: as above; assay type: in vivo, Setaria faberii; settings: POSTEMERGENCE
# How it was run: as §2
# [11] = system: bedstraw; assay: Test B preemergence/postemergence greenhouse plant response rating 0 to 10; assay type: in vivo, Galium aparine; settings: 0 to 10 scale
# How it was run: as §1
# [12] = system: velvetleaf; assay: Test C preemergence/postemergence greenhouse plant response rating 0 to 100; assay type: in vivo, Abutilon theophrasti; settings: POSTEMERGENCE
# How it was run: as §2
# [13] = system: wheat; assay: as above; assay type: in vivo, Triticum aestivum; settings: POSTEMERGENCE
# How it was run: as §2
# [14] = system: bedstraw; assay: as above; assay type: in vivo, Galium aparine; settings: POSTEMERGENCE
# How it was run: as §2
# [15] = system: morningglory; assay: as above; assay type: in vivo, Ipomoea hederacea; settings: POSTEMERGENCE
# How it was run: as §2
# [16] = system: cotton; assay: as above; assay type: in vivo, Gossypium hirsutum; settings: POSTEMERGENCE
# How it was run: as §2
# [17] = system: wild buckwheat; assay: Test B preemergence/postemergence greenhouse plant response rating 0 to 10; assay type: in vivo, Polygonum convolvulus; settings: 0 to 10 scale
# How it was run: as §1
# [18] = POSTEMERGENCE section, flood test, Rate 1 g/ha
# [19] = POSTEMERGENCE section, flood test, Rate 4 g/ha
# [20] = Rate 16 g/ha, under POSTEMERGENCE head (flood test species)
# [21] = flood test species listed under POSTEMERGENCE, 62 g/ha, 0 to 100 scale
smiles,measurement,setting,value
COCN1C(=O)COc2cc(F)c(-c3nn4c(c3Br)CCCC4)cc21 [Compound 67],"Plant response rating, Chickweed","[1]; POSTEMERGENCE, Rate 10 g/ha",7
same,"Plant response rating, Chickweed","[1]; POSTEMERGENCE, Rate 50 g/ha",9
same,"Plant response rating, Chickweed","[1]; PREEMERGENCE, Rate 10 g/ha",0
same,"Plant response rating, Chickweed","[1]; PREEMERGENCE, Rate 50 g/ha",6
same,"Plant response rating (0 to 100), Duck salad",[2]; [18],0
same,"Plant response rating (0 to 100), Duck salad",[2]; [19],0
same,"Plant response rating (0 to 100), Duck salad",[2]; [20],0
same,Plant response rating Duck salad,[2]; [21],10
same,"Plant response rating, Corn","[3]; 62 g/ha, 0 to 100 scale",40
same,"Plant response rating (0 to 100), Corn",[3]; Rate 1 g/ha,10
same,"Plant response rating (0 to 100), Corn",[3]; Rate 4 g/ha,20
same,"Plant response rating (0 to 100), Corn",[3]; Rate 16 g/ha,30
same,"Plant response rating (0 to 100), Barnyardgrass 2",[4]; [18],0
same,"Plant response rating (0 to 100), Barnyardgrass 2",[4]; [19],20
same,"Plant response rating (0 to 100), Barnyardgrass 2",[4]; [20],90
same,Plant response rating Barnyardgrass 2,[4]; [21],95
same,"Plant response rating, Sugar beet","[5]; POSTEMERGENCE, Rate 10 g/ha",10
same,"Plant response rating, Sugar beet","[5]; POSTEMERGENCE, Rate 50 g/ha",10
same,"Plant response rating, Sugar beet","[5]; PREEMERGENCE, Rate 50 g/ha",9
same,"Plant response rating, Wild oat","[6]; 62 g/ha, 0 to 100 scale",60
same,"Plant response rating (0 to 100), Wild oat",[6]; Rate 1 g/ha,10
same,"Plant response rating (0 to 100), Wild oat",[6]; Rate 4 g/ha,30
same,"Plant response rating (0 to 100), Wild oat",[6]; Rate 16 g/ha,50
same,Plant response rating Downy Brome,"[7]; 62 g/ha, 0 to 100 scale",60
same,"Plant response rating (0 to 100), Downy Brome",[7]; Rate 1 g/ha,20
same,"Plant response rating (0 to 100), Downy Brome",[7]; Rate 4 g/ha,50
same,"Plant response rating (0 to 100), Downy Brome",[7]; Rate 16 g/ha,60
same,"Plant response rating, Corn","[8]; POSTEMERGENCE, Rate 10 g/ha",3
same,"Plant response rating, Corn","[8]; POSTEMERGENCE, Rate 50 g/ha",4
same,"Plant response rating, Corn","[8]; PREEMERGENCE, Rate 50 g/ha",2
same,"Plant response rating, Sorghum","[9]; 62 g/ha, 0 to 100 scale",60
same,"Plant response rating (0 to 100), Sorghum",[9]; Rate 1 g/ha,20
same,"Plant response rating (0 to 100), Sorghum",[9]; Rate 4 g/ha,30
same,"Plant response rating (0 to 100), Sorghum",[9]; Rate 16 g/ha,40
same,"Plant response rating, Giant foxtail","[10]; 62 g/ha, 0 to 100 scale",40
same,"Plant response rating (0 to 100), Giant foxtail",[10]; Rate 1 g/ha,10
same,"Plant response rating (0 to 100), Giant foxtail",[10]; Rate 4 g/ha,20
same,"Plant response rating (0 to 100), Giant foxtail",[10]; Rate 16 g/ha,30
same,"Plant response rating, Bedstraw","[11]; POSTEMERGENCE, Rate 10 g/ha",8
same,"Plant response rating, Bedstraw","[11]; POSTEMERGENCE, Rate 50 g/ha",10
same,"Plant response rating, Bedstraw","[11]; PREEMERGENCE, Rate 10 g/ha",0
same,"Plant response rating, Bedstraw","[11]; PREEMERGENCE, Rate 50 g/ha",3
same,"Plant response rating, Velvetleaf","[12]; 62 g/ha, 0 to 100 scale",100
same,"Plant response rating (0 to 100), Velvetleaf",[12]; Rate 1 g/ha,70
same,"Plant response rating (0 to 100), Velvetleaf",[12]; Rate 4 g/ha,85
same,"Plant response rating (0 to 100), Velvetleaf",[12]; Rate 16 g/ha,100
same,"Plant response rating, Wheat","[13]; 62 g/ha, 0 to 100 scale",60
same,"Plant response rating (0 to 100), Wheat",[13]; Rate 1 g/ha,10
same,"Plant response rating (0 to 100), Wheat",[13]; Rate 4 g/ha,30
same,"Plant response rating (0 to 100), Wheat",[13]; Rate 16 g/ha,50
same,"Plant response rating, Bedstraw","[14]; 62 g/ha, 0 to 100 scale",80
same,"Plant response rating (0 to 100), Bedstraw",[14]; Rate 1 g/ha,40
same,"Plant response rating (0 to 100), Bedstraw",[14]; Rate 4 g/ha,70
same,"Plant response rating (0 to 100), Bedstraw",[14]; Rate 16 g/ha,80
same,"Plant response rating, Morningglory","[15]; 62 g/ha, 0 to 100 scale",100
same,"Plant response rating (0 to 100), Morningglory",[15]; Rate 1 g/ha,50
same,"Plant response rating (0 to 100), Morningglory",[15]; Rate 4 g/ha,70
same,"Plant response rating (0 to 100), Morningglory",[15]; Rate 16 g/ha,100
same,"Plant response rating, Cotton","[16]; 62 g/ha, 0 to 100 scale",100
same,"Plant response rating (0 to 100), Cotton",[16]; Rate 1 g/ha,95
same,"Plant response rating (0 to 100), Cotton",[16]; Rate 4 g/ha,100
same,"Plant response rating (0 to 100), Cotton",[16]; Rate 16 g/ha,100
same,"Plant response rating, Wild buckwheat","[17]; POSTEMERGENCE, Rate 10 g/ha",10
same,"Plant response rating, Wild buckwheat","[17]; POSTEMERGENCE, Rate 50 g/ha",10
same,"Plant response rating, Wild buckwheat","[17]; PREEMERGENCE, Rate 50 g/ha",10
